Test results published in patent US20220007687A1, “SHELF STABLE LIQUID FLAVORED CONCENTRATE” (DreamPak LLC, priority 2020, published 2022).

What was measured:
[1] = pH of acid solutions with sodium citrate buffer (Example 2); assay type: physicochemical; conditions: for delta pH: buffered concentrate (Example 2) compared to concentrate without buffer (Example 1); for pH: concentrate: 22 g acid, 2 g sodium citrate, 76 ml water
Procedure: The impact of adding a buffer to solutions of lactic, citric, and malic acid is researched. With each acid, 22 g of the acid is mixed with 2 g of sodium citrate in 76 ml of water, and pH readings of the concentrates are obtained, then 2 ml of the concentrates is diluted in 250 ml of water and the resulting solutions were evaluated for taste and mouthfeel.

[2] = pH of acid solutions in water (Example 1); assay type: physicochemical; conditions: 22 g acid in 78 ml water; 2 ml of the mixture diluted in 250 ml water
Procedure: The pH, taste, and mouthfeel of lactic, citric, and malic acids are compared. With each acid, 22 g of the acid is mixed in 78 ml of water, then 2 ml of the mixture is diluted in 250 ml of water, and pH readings of the diluted solutions are obtained.

| delta pH [1] | pH [1] | pH [2] | SMILES |
| --- | --- | --- | --- |
| 0.79 | 2.12 | 1.33 | O=C(O)CC(O)C(=O)O (stereo not drawn) [Malic Acid, malic acid] |
| 1.04 | 2.49 | 1.45 | CC(O)C(=O)O (stereo not drawn) [Lactic Acid, 2-hydroxypropionic acid] |
| 0.87 | 2.02 | 1.15 | O=C(O)CC(O)(CC(=O)O)C(=O)O [Citric Acid, citric acid] |
